Laboratory results as given in article PMC7307906, “Macrocyclic Modalities Combining Peptide Epitopes and Natural Product Fragments” (Journal of the American Chemical Society, 2020).
“And” between values parts separate entries of the source, which are not always exact repeats. Equal entries are not always repeated. Where two headings read alike, the source gives them in different places.

Legend:
[1] = biological target: T1, human MC5R (Homo sapiens, UniProt P33032); assay: Melanocortin receptor radioligand binding (SPA, [125I]-NDP-α-MSH displacement), MC5R; conditions: competitive binding, [125I]-NDP-α-MSH; mean (± SEM) of at least three independent experiments; read-out: IC50 hMC5R binding
T1 construct: expressed in transfected cells; host or cells: HEK293-6E suspension cells, transient expression; membranes

[2] = biological target: T2, human MC3R (Homo sapiens, UniProt P41968); assay: Melanocortin receptor radioligand binding (SPA, [125I]-NDP-α-MSH displacement), MC3R; conditions: competitive binding, mean (± SEM) of at least three independent experiments, read-out: IC50 hMC3R binding
T2 construct: expressed in transfected cells

[3] = biological target: T3, human MC4R (Homo sapiens, UniProt P32245); assay: cAMP assay (LANCE) in T-Rex-293 cells expressing MC4R; format: cell-based; conditions: for EC50: cAMP assay, mean (± SEM) of at least three independent experiments, read-out: EC50 hMC4R cAMP
T3 construct: expressed in transfected cells

[4] = biological target: T4, human MC1R (Homo sapiens, UniProt Q01726); assay: cAMP assay (LANCE) in T-Rex-293 cells expressing MC1R; format: cell-based; conditions: for Emax: T-REx-293, read-out: % Effect hMC1R cAMP; for EC50: cAMP assay, mean (± SEM) of at least three independent experiments, read-out: EC50 hMC1R cAMP
T4 construct: expressed in transfected cells

[5] = biological target: T3, human MC4R; assay: Melanocortin receptor radioligand binding (SPA, [125I]-NDP-α-MSH displacement), MC4R; conditions: competitive binding, mean (± SEM) of at least three independent experiments, read-out: IC50 hMC4R binding
[6] = biological target: T2, human MC3R; assay: cAMP assay (LANCE) in T-Rex-293 cells expressing MC3R; format: cell-based; conditions: for EC50: cAMP assay, mean (± SEM) of at least three independent experiments, read-out: EC50 hMC3R cAMP
[7] = biological target: T4, human MC1R; assay: Melanocortin receptor radioligand binding (SPA, [125I]-NDP-α-MSH displacement), MC1R; conditions: competitive binding, mean (± SEM) of at least three independent experiments, read-out: IC50 hMC1R binding
[8] = resin
[9] = Emax (curve plateau), relative to NDP-α-MSH, NA = No Activity detected, threshold 20% effect
[10] = other bond, Fmoc removal, intramolecular imine, N-phenylmaleimide 1,3-dipolar cycloaddition, 4 steps
[11] = other bond, Fmoc removal (RP-03), imine cyclization/N-phenylmaleimide 1,3-dipolar cycloaddition (RP-04), 3 steps
[12] = other bond, imine formation, then N-phenylmaleimide cycloaddition (RP-04), with chain assembly
[13] = other bond, N-phenylmaleimide (RP-04; imine cyclization/1,3-dipolar cycloaddition), 4 steps

T4 sequence (Q01726 whole entry): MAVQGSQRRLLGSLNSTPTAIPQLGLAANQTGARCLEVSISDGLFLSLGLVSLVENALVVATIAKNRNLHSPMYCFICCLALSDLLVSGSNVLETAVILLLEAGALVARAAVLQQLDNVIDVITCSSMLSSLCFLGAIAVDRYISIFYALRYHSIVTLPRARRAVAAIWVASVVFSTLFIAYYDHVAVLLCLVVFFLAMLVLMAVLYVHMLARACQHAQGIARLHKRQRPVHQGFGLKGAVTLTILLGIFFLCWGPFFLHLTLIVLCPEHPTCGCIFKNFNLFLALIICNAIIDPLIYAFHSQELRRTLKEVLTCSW
T2 sequence (P41968 whole entry): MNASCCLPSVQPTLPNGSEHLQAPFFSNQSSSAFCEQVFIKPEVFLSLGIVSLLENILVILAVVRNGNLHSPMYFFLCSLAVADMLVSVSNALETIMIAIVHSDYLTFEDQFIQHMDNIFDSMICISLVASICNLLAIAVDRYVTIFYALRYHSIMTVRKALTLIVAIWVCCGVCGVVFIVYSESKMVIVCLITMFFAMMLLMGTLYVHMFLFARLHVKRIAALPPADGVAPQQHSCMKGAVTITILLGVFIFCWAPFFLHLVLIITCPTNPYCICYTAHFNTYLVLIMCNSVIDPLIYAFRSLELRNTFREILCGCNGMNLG
T3 sequence (P32245 whole entry): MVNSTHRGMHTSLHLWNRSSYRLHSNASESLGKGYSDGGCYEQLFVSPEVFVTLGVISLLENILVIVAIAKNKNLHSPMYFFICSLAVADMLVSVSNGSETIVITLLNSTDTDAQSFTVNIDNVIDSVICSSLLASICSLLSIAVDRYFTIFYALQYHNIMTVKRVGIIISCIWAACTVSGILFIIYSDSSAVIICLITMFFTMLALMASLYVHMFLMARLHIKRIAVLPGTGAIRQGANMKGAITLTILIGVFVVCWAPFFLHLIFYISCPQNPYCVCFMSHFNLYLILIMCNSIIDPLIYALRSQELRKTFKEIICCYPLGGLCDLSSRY
T1 sequence (P33032 whole entry): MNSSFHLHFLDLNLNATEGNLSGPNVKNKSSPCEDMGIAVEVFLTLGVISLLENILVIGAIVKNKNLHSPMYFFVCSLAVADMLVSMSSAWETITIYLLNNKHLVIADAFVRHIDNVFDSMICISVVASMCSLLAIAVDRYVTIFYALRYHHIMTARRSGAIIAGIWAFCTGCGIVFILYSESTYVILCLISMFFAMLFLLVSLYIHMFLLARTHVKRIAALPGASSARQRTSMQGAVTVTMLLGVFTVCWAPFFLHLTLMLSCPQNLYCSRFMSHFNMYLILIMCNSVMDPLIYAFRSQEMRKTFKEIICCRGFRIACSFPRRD

## C[C@@H]1NC(=O)[C@H](CC(N)=O)NC(=O)[C@H](Cc2ccccc2)NC(=O)[C@H](Cc2ccccc2)NC(=O)[C@H](CCCNC(=N)N)NC(=O)[C@H](Cc2ccccc2)N(C)C(=O)[C@@H]2N[C@H](c3ccc(cc3)C(=O)NCCCC[C@@H](C(=O)N[C@@H](Cc3ccc(O)cc3)C(N)=O)NC(=O)[C@H](Cc3ccccc3)NC1=O)[C@@H]1C(=O)N(C)C(=O)[C@@H]12 [B1-major, [ I-FRFFNAFK ]Y]
[1]
  IC50: 16 ± 2 µM
[2]
  IC50: 32 ± 2 µM
[3]
  EC50: > 100 µM
[4]
  Emax: 37%
  EC50: 1.8 ± 1.2 µM
[5]
  IC50: 34 ± 3 µM
[6]
  EC50: > 100 µM
[7]
  IC50: 41 ± 2 µM

## C[C@@H]1NC(=O)[C@H](CC(N)=O)NC(=O)[C@H](Cc2ccccc2)NC(=O)[C@H](Cc2ccccc2)NC(=O)[C@H](CCCNC(=N)N)NC(=O)[C@H](Cc2ccccc2)N(C)C(=O)[C@H]2N[C@@H](c3ccc(cc3)C(=O)NCCCC[C@@H](C(=O)NCC(N)=O)NC(=O)[C@H](Cc3ccccc3)NC1=O)[C@H]1C(=O)N(C)C(=O)[C@H]12 [B2-minor, [ I-FRFFNAFK ]G]
[1]
  IC50: 31 ± 0.4 µM
[2]
  IC50: > 100 µM
[3]
  EC50: > 100 µM
[4]
  Emax: 39%
  EC50: 10 ± 2 µM
[5]
  IC50: 96 ± 4 µM
[6]
  EC50: > 100 µM
[7]
  IC50: > 100 µM

## C[C@@H]1NC(=O)[C@H](CC(N)=O)NC(=O)[C@H](Cc2ccccc2)NC(=O)[C@H](Cc2ccccc2)NC(=O)[C@H](CCCNC(=N)N)NC(=O)[C@H](Cc2ccccc2)N(C)C(=O)[C@H]2N[C@@H](c3ccc(cc3)C(=O)NCCCC[C@@H](C(=O)NCC(N)=O)NC(=O)[C@H](Cc3ccccc3)NC1=O)[C@H]1C(=O)N(c3ccccc3)C(=O)[C@H]12 [B3-major*, [ II-FRFFNAFK]G]
[1]
  IC50: > 10 µM
[2]
  IC50: > 10 µM
[3]
  EC50: > 10 µM
[4]
  EC50: > 10 µM
[5]
  IC50: > 10 µM
[6]
  EC50: > 10 µM
[7]
  IC50: > 10 µM

## CCCC[C@H](NC(C)=O)C(=O)N[C@H]1CC(=O)NCCCC[C@@H](C(=O)O)NC(=O)[C@H](Cc2c[nH]c3ccccc23)NC(=O)[C@H](CCCNC(=N)N)NC(=O)[C@@H](Cc2ccccc2)NC(=O)[C@H](Cc2c[nH]cn2)NC1=O [Bremelanotid (BreMT), Bremelanotid, reference compound]
[4]; [9]
  % Effect hMC1R cAMP: 97%

## C[C@@H]1NC(=O)[C@H](CC(N)=O)NC(=O)[C@@H](Cc2ccccc2)NC(=O)[C@@H](Cc2ccccc2)NC(=O)[C@H](CCCNC(=N)N)NC(=O)[C@H](Cc2ccccc2)N(C)C(=O)[C@@H]2N[C@H](c3ccc(cc3)C(=O)NCCCC[C@@H](C(=O)N[C@@H](Cc3ccc(O)cc3)C(N)=O)NC(=O)[C@H](Cc3ccccc3)NC1=O)[C@@H]1C(=O)N(C)C(=O)[C@@H]12 [C1-major, [I-FRffNAFK ]Y]
[1]
  IC50: 13 ± 1 µM
[2]
  IC50: 36 ± 1 µM
[3]
  EC50: > 100 µM
[4]
  Emax: 47%
  EC50: 1.8 ± 0.3 µM
[5]
  IC50: 26 ± 2 µM
[6]
  EC50: > 100 µM
[7]
  IC50: 23 ± 1 µM

## C[C@@H]1NC(=O)[C@H](CC(N)=O)NC(=O)[C@@H](Cc2ccccc2)NC(=O)[C@@H](Cc2ccccc2)NC(=O)[C@H](CCCNC(=N)N)NC(=O)[C@H](Cc2ccccc2)N(C)C(=O)[C@@H]2N[C@H](c3ccc(cc3)C(=O)NCCCC[C@@H](C(=O)N[C@@H](Cc3ccc(O)cc3)C(N)=O)NC(=O)[C@H](Cc3ccccc3)NC1=O)[C@]1(C(=O)Nc3ccccc31)[C@H]2c1ccccc1 [C2-major, [X-FRffNAFK ]Y]
[4]
  Emax: 57%

## C[C@@H]1NC(=O)[C@H](CC(N)=O)NC(=O)[C@@H](Cc2ccccc2)NC(=O)[C@@H](Cc2ccccc2)NC(=O)[C@H](CCCNC(=N)N)NC(=O)[C@H](Cc2ccccc2)N(C)C(=O)C2NC(c3ccc(cc3)C(=O)NCCCC[C@@H](C(=O)N[C@@H](Cc3ccc(O)cc3)C(N)=O)NC(=O)[C@H](Cc3ccccc3)NC1=O)C1(C(=O)Nc3ccccc31)C2c1ccccc1 (some centres unmarked) [C2-minor, [X-FRffNAFK ]Y]
[4]
  Emax: 36%

## C[C@@H]1NC(=O)[C@H](CC(N)=O)NC(=O)[C@@H](Cc2ccccc2)NC(=O)[C@@H](Cc2ccccc2)NC(=O)[C@H](CCCNC(=N)N)NC(=O)[C@H](Cc2ccccc2)N(C)C(=O)[C@@H]2N[C@H](c3ccc(cc3)C(=O)NCCCC[C@@H](C(=O)NCC(N)=O)NC(=O)[C@H](Cc3ccccc3)NC1=O)[C@@H]1C(=O)N(C)C(=O)[C@@H]12 [C4-major, [I-FRffNAFK ]G]
[1]
  IC50: 36 ± 3 µM
[2]
  IC50: > 100 µM
[3]
  EC50: > 100 µM
[4]
  Emax: 56%
  EC50: 2.2 ± 1 µM
[5]
  IC50: 72 ± 4 µM
[6]
  EC50: > 100 µM
[7]
  IC50: 88 ± 1 µM

## CN1C(=O)[C@@H]2N[C@H](c3ccc(cc3)C(=O)NCCCC[C@@H](C(=O)N[C@@H](Cc3ccc(O)cc3)C(N)=O)NC(=O)[C@H](Cc3ccccc3)NC(=O)[C@H](Cc3ccccc3)NC(=O)[C@H](CCCNC(=N)N)NC(=O)[C@@H]1Cc1ccccc1)[C@@H]1C(=O)N(c3ccccc3)C(=O)[C@@H]12 [N1-minor*, [II-FRFFK ]Y]
[4]
  Emax: 56%

## CN1C(=O)[C@@H]2N[C@H](c3ccc(cc3)C(=O)NCCCC[C@@H](C(=O)NCC(N)=O)NC(=O)[C@H](Cc3ccccc3)NC(=O)[C@H](Cc3ccccc3)NC(=O)[C@H](CCCNC(=N)N)NC(=O)[C@@H]1Cc1ccccc1)[C@@H]1C(=O)N(c3ccccc3)C(=O)[C@@H]12 [N2-minor*, [II-FRFFK ]G]
[4]
  Emax: 36%

## CN1C(=O)[C@@H]2N[C@H](c3ccc(cc3)C(=O)NCCCC[C@@H](C(=O)N[C@@H](Cc3ccc(O)cc3)C(N)=O)NC(=O)[C@@H](Cc3ccccc3)NC(=O)[C@@H](Cc3ccccc3)NC(=O)[C@H](CCCNC(=N)N)NC(=O)[C@@H]1Cc1ccccc1)[C@@H]1C(=O)N(c3ccccc3)C(=O)[C@@H]12 [O2-major, [II-FRffK ]Y]
[4]
  Emax: 62%

## CC(=O)N[C@@H](CCCNC(=N)N)C(=O)N[C@H]1CSSC[C@@H](C(N)=O)NC(=O)[C@H](Cc2c[nH]c3ccccc23)NC(=O)[C@H](CCCNC(=N)N)NC(=O)[C@@H](Cc2ccccc2)NC(=O)[C@H](Cc2c[nH]cn2)NC(=O)[C@@H](C)NC1=O [RM493, reference compound]
[1]
  IC50: 1.8 ± 0.3 µM
[3]; [9]
  % Effect hMC4R cAMP: 100%
[4]
  Emax: 96%
[6]; [9]
  % Effect hMC3R cAMP: 98%

## [N-Me-fused-di-pyrrolidine-NMefDINNNK]G
[8]; other bond, Fmoc removal, intramolecular imine, N-methylmaleimide 1,3-dipolar cycloaddition, 4 steps
  ring closure, yield after HPLC: 5%

## [N-Ph-fused-di-pyrrolidine-NMeFALFPGFK]G, A2
[8]; other bond, 37-membered ring, CH(OMe)3/Et3N, then 7/LiBr/Et3N, DMF, THF, 25.0 °C, with chain assembly
  ring closure, yield after HPLC: 10%

## [N-Ph-fused-di-pyrrolidine-NMeFDINNNDap]G
[8]; [10]
  ring closure, yield after HPLC: 2%

## [N-Ph-fused-di-pyrrolidine-NMeFDINNNK]G
[8]; other bond, Fmoc removal (RP-03), imine cyclization/1,3-dipolar cycloaddition, N-phenylmaleimide (RP-04), 4 steps
  ring closure, yield after HPLC: 5%

## [N-Ph-fused-di-pyrrolidine-NMeFRANK]G
[8]; [11]
  ring closure, yield after HPLC: 3%

## [N-Ph-fused-di-pyrrolidine-NMeFRFFK], N3
[8]; [12]
  ring closure, yield after HPLC: 2%

## [N-Ph-fused-di-pyrrolidine-NMeFRFFK]G, N2
[8]; [12]
  ring closure, yield after HPLC: 2% and 3%

## [N-Ph-fused-di-pyrrolidine-NMeFRFFK]Y, N1
[8]; other bond, imine formation, then N-phenylmaleimide cycloaddition (RP-04), 4 steps
  ring closure, yield after HPLC: 16% and 10%

## [N-Ph-fused-di-pyrrolidine-NMeFRFFNAK]Y
[8]; [13]
  ring closure, yield after HPLC: 2%

## [N-Ph-fused-di-pyrrolidine-NMeFRffK]Y, O2
[8]; [12]
  ring closure, yield after HPLC: 2%

## [N-Ph-fused-di-pyrrolidine-NMeFRffNK]G
[8]; [11]
  ring closure, yield after HPLC: 1%

## [N-Ph-fused-di-pyrrolidine-NMeFRffNK]Y
[8]; amide bond, 31-membered ring, 3 steps
  ring closure, yield after HPLC: 2%

## [N-Ph-fused-di-pyrrolidine-NMeVDINNNK]G
[8]; [10]
  ring closure, yield after HPLC: 2% and 4%

## [N-Ph-fused-di-pyrrolidine-NMeVINNNK]G
[8]; [13]
  ring closure, yield after HPLC: 7%

## [Ph-pyrrolidinyl-spirooxindole-NMeFRffNAK]G
[8]; other bond, (E)-3-benzylidene-indolin-2-one (RP-04; imine cyclization/1,3-dipolar cycloaddition), 4 steps
  ring closure, yield after HPLC: 5%

## [pyrrolidine-NMeFDINNNK]G
[8]; other bond, Fmoc removal (RP-03), imine cyclization/1,3-dipolar cycloaddition, dimethyl maleate (RP-04), 4 steps
  ring closure, yield after HPLC: 6% and 7%
